Read-outs that look alike come from different tables or passages of the source.
What was measured:
TlpQ-LBD [1] = experiment: biochemical; format: binding, Pseudomonas aeruginosa PAO1; settings: ratio of ITC KD values
TlpQ-LBD [2] = target: TlpQ-LBD (Pseudomonas aeruginosa, UniProt Q9I0I4); experiment: biochemical; format: binding, Pseudomonas aeruginosa PAO1
McpU-LBD [3] = target: T1, McpU-LBD (Pseudomonas putida, UniProt Q88NI1); experiment: ITC binding of ligands to McpU-LBD; set-up: species or system Pseudomonas putida KT2440; settings: for ΔH McpU-LBD / Kd: 25°C; for Kd: polybuffer pH 7.0
T1 sequence (Q88NI1 50-284): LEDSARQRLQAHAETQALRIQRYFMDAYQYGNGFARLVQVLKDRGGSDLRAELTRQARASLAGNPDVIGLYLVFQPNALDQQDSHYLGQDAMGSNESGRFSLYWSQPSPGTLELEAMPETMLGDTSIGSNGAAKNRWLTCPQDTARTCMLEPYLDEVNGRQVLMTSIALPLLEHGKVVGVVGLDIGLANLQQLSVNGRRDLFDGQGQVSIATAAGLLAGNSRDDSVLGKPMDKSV

McpU-LBD [4] = target: T1, McpU-LBD; settings: read-out: KD McpU-LBD; ITC; reported previously; cited from earlier work
PctA-LBD = PctA-LBD (Pseudomonas aeruginosa, UniProt G3XD24); settings: for binding to PctA-LBD (in words): direct microcalorimetric titration
Sequence of PctA-LBD (G3XD24 32-276): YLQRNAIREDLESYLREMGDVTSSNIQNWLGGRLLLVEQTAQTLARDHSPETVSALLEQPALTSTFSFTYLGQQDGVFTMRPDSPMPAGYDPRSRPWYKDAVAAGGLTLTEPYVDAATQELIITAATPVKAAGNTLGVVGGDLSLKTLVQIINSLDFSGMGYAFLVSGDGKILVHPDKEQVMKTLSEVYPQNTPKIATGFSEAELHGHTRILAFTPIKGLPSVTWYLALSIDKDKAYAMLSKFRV

McpU-LBD [5] = target: T1, McpU-LBD; experiment: Thermal shift assay of McpU-LBD; format: binding, Pseudomonas putida KT2440; settings: 10 µM McpU-LBD, Biolog plate PM3B; Tm without ligand 46.5°C
Method: Thermal shift experiments were conducted as reported in reference in [57]. McpU-LBD in polybuffer {5 mM Tris, 5 mM PIPES [piperazine-N,N′-bis(2-ethanesulfonic acid)], 5 mM MES [morpholineethanesulfonic acid], 10% glycerol [vol/vol], 150 mM NaCl, pH 7.0} was used at a final concentration of 10 µM. Biolog (Hayward, CA, USA) compound arrays PM3B (nitrogen sources), PM4A (phosphorous and sulfur sources), and PM5 (nutrient supplements) were used for screening. The compositions of these arrays are provided at http://208.106.130.253/pdf/pm_lit/PM1-PM10.pdf.

KT2440 = experiment: Growth with ligand as sole carbon or nitrogen source, KT2440; settings: KT2440, minimal medium, 5 mM ligand
PAO1 = experiment: Growth with ligand as sole carbon or nitrogen source, PAO1; settings: PAO1, minimal medium, 5 mM ligand
PctC-LBD = PctC-LBD (Pseudomonas aeruginosa, UniProt Q9HW93); experiment: Microcalorimetric binding studies with PctC-LBD; set-up: species or system Pseudomonas aeruginosa PAO1; settings: direct microcalorimetric titration
Sequence of PctC-LBD (Q9HW93 32-279): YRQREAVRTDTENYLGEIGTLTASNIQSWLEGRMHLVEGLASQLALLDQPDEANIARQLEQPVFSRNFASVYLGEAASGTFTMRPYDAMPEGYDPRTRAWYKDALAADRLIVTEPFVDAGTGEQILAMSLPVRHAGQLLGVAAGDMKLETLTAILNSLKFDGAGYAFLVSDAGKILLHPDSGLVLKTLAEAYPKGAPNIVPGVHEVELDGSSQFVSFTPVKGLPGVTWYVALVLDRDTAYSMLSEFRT

[6] = system: Ralstonia pseudosolanacearum Ps29; settings: 5 mM histamine, strain Ps29
[7] = system: Ralstonia pseudosolanacearum Ps29; settings: Ps29, minimal medium, 5 mM
[8] = system: P. aeruginosa PAO1 mutant strains
Method: (§1) Two protocols were used that differed in the ways the cells were counted. The first protocol was used to generate the data shown Fig. S6, whereas the second protocol was used for the remaining chemotaxis experiments. In the first protocol, overnight cultures of strains were diluted to an OD660 of 0.05 in MS medium ([58]) supplemented with 6 mg·liter^−1 Fe citrate, trace elements, and 15 mM glucose and grown at 37°C. At an OD660 of 0.4, the cultures were centrifuged at 1,700 × g for 5 min and the pellet was washed twice with chemotaxis buffer (50 mM potassium phosphate, […], 0.05% [vol/vol] glycerol, pH 7.0). The cells were resuspended in this buffer and adjusted to an OD660 of 0.1, and 230-µl aliquots were placed into 96-well plates. Capillary tubes (P1424, Microcaps; Drummond Scientific) were heat sealed at one end and filled with chemotaxis buffer or chemotaxis chemoattractant solution. The capillaries were then immersed in bacterial suspensions at their open ends. After 30 min at room temperature, the capillaries were removed and rinsed with sterile water, and the content was expelled into 1 ml of M9 medium. Serial dilutions were plated on LB medium, and the CFU were determined. In all cases, the data were corrected to the number of cells that swam into the buffer-containing capillaries. In the second protocol, we used computer-assisted image analysis as reported previously ([59]). Briefly, capillaries were filled with chemoattractant solutions in 10 mM HEPES buffer (pH 7.0) containing 1% (wt/vol) agarose and heat sealed on one side. The cells were grown in 2× yeast extract-tryptone (YT), medium and 10-μl aliquots of the cell suspension were placed onto a microscope slide within the U-shaped spacer, which was then covered by a coverslip. The chemoattractant-filled capillaries were introduced into the chemotaxis chamber, and cell movement was videotaped, with images taken at the beginning and at different time intervals. If not otherwise stated, the contact time between the cell and the chemoattractant was 2 min. The Bioinformatics Assistant Icy Sport detector software ([60]) was used to determine the number of cells per image. The magnitude of chemotaxis was expressed as the number of cells after a given time over the number of cells at the beginning of the experiment. The data shown are the means and standard deviations from three experiments conducted in triplicates.

[9] = system: P. aeruginosa strains 233, 401 and PA14; settings: 5 mM histamine; all analyzed P. aeruginosa strains
Method: as §1

[10] = system: P. aeruginosa PA14 mutant defective in pctA, pctC and tlpQ; settings: deletion of pctA, tlpQ homologues
Method: as §1

P. aeruginosa PAO1 = settings: PAO1, capillary assay
Method: as §1

Sequence of TlpQ-LBD (Pseudomonas aeruginosa, UniProt Q9I0I4) (Q9I0I4 33-359): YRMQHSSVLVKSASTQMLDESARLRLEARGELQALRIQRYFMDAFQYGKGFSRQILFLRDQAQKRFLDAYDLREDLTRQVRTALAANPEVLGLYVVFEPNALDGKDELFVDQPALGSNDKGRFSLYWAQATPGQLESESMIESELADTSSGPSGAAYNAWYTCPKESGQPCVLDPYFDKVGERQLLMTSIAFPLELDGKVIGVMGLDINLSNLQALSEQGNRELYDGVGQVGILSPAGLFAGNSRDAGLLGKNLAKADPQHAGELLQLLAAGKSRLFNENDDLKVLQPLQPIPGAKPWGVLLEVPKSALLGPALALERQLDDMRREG

Row | Compound | KD McpU-LBD/KD TlpQ-LBD (TlpQ-LBD [1]) | Kd (TlpQ-LBD [2]) [nM] | ΔH TlpQ-LBD (TlpQ-LBD [2]; ITC, 25°C) [kcal/mol] | ΔH McpU-LBD (McpU-LBD [3]) [kcal/mol] | Kd (McpU-LBD [4]) [nM] | binding to McpU-LBD (in words) (McpU-LBD [3]) | Kd (McpU-LBD [3]) [nM] | Tm increase of McpU-LBD (McpU-LBD [5]) | growth as sole carbon or nitrogen source (KT2440) | growth as sole carbon or nitrogen source (PAO1) | other results
1 | NCCCCN [Putrescine] | 15 | 134 ± 12 | -6.8 ± 0.3 | -15 ± 0.5 | 2000 ± 100 | – | – | – | – | – | –
2 | C[C@H](N)C(=O)O [L-Ala, L-alanine, reference compound] | – | – | – | – | – | – | – | – | – | – | binding to PctA-LBD (in words) (PctA-LBD): bound
3 | NCCCCN=C(N)N [Agmatine] | 3 | 150 ± 9 | -5.4 ± 0.1 | -14.5 ± 0.2 | – | Very tight binding | 480 ± 20 | greater than 2 °C | – | – | –
4 | NCCN [Ethylenediamine] | 23 | – | -6.3 ± 0.6 | -9.7 ± 0.5 | – | much lower affinities | 39000 ± 4000 | greater than 2 °C | either not or were poor growth substrates | either not or were poor growth substrates | binding to TlpQ-LBD (in words) (TlpQ-LBD [2]; ITC): slightly weaker; Kd (TlpQ-LBD [2]; ITC, 25°C, polybuffer pH 7.0, read-out: KD TlpQ-LBD): 1710 nM
5 | NC(=O)CC[C@H](N)C(=O)O [L-Gln, reference compound] | – | – | – | – | – | – | – | – | – | – | binding to PctC-LBD (in words) (PctC-LBD): bound
6 | NCCCCNCCCN [Spermidine] | 80 | 56 ± 4 | -4.6 ± 0.4 | -4.3 ± 0.3 | 4500 ± 400 | – | – | – | either not or were poor growth substrates | either not or were poor growth substrates | –
7 | NCCc1c[nH]cn1 [Histamine] | 41 | 639 ± 27 | -9.1 ± 0.3 | -2.6 ± 0.3 | – | much lower affinities | 26000 ± 2000 | greater than 2 °C | permitted the growth | permitted the growth | chemotaxis (in words) [6]: not attracted; binding to PctA-LBD, competition assay (in words) (PctA-LBD; PctA-LBD titrated with L-Ala with and without 20 mM histamine): does not bind directly; binding to PctA-LBD (in words) (PctA-LBD): did not bind; growth as sole carbon and nitrogen source [7]: no significant growth; chemotaxis of PCT2Q complemented with pctA, pctC or tlpQ ([8]; 500 µM histamine, 2.5 min): significant chemotaxis; chemotaxis of PCT2Q complemented with pctC or tlpQ in trans ([8]; 500 µM histamine, exposure time 1 min): recovered histamine chemotaxis; chemotaxis of strain PCT2 (pctA, pctB, pctC deleted) ([8]; 5 mM histamine): abolished chemotaxis; concentration range of significant chemotaxis of PCT2 mutant ([8]; dose response): 0.5 µM and 500 µM; chemotaxis of PCT2Q mutant (pctABC and tlpQ deleted) ([8]; entire concentration range 50 nM to 50 mM): devoid of histamine chemotaxis; chemotaxis (in words) [9]: significant chemotaxis; chemotaxis of PA14 triple mutant [10]: abolished histamine chemotaxis; concentration at onset of chemotactic response (P. aeruginosa PAO1): 500 nM; chemotaxis (in words) (P. aeruginosa PAO1; 2 min): much stronger; concentration at onset of chemotactic response (P. putida KT2440; KT2440, capillary assay): 5 µM; chemotaxis (in words) (P. putida KT2440; KT2440, histamine dose response): only moderate chemotaxis; binding to PctC-LBD (in words) (PctC-LBD): did not bind
8 | C=C [ethylene] | – | – | – | – | – | – | – | – | – | – | binding to TlpQ-LBD (in words) (TlpQ-LBD [2]; ITC): did not show any binding
9 | NCCCCCN [Cadaverine] | 147 | 150 ± 4 | -6.0 ± 0.1 | -15.5 ± 0.5 | 22000 ± 2000 | – | – | – | – | – | –
